How the values were obtained:
Assay in all cases: relative viability (nuclei count vs DMSO), 5 days (fraction); higher = more cells survive
BI-D1870 + Pictilisib = compound: CC(C)CCN1c2nc(Nc3cc(F)c(O)c(F)c3)ncc2N(C)C(=O)C1C [BI-D1870] + CS(=O)(=O)N1CCN(Cc2cc3nc(-c4cccc5[nH]ncc45)nc(N4CCOCC4)c3s2)CC1 [Pictilisib] (partner 1 µM)
Summary of the method: (§1)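 Nuclei were stained with Hoechst during a one-step fixation (final 0.05% Triton X-100, 1% formaldehyde, 1 ug/ml Hoechst) carried out 5 days after dosing, then counted on 4× images. The cells, lung cancer lines in 1536-well plates, had been dosed by pin tool the day after seeding with one drug alone or a fixed anchor-drug dose plus five library-drug doses (not always all listed) in √10 steps. Relative viability is the nuclei count in treated wells divided by that in vehicle wells, and each value is the median of duplicate plates.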

Zebularine + Lapatinib = compound: O=c1ncccn1[C@@H]1O[C@H](CO)[C@@H](O)[C@H]1O [Zebularine] + CS(=O)(=O)CCNCc1ccc(-c2ccc3ncnc(Nc4ccc(OCc5cccc(F)c5)c(Cl)c4)c3c2)o1 [Lapatinib] (partner 2 µM)
Summary of the method: as §1

Zebularine + Alpelisib = compound: O=c1ncccn1[C@@H]1O[C@H](CO)[C@@H](O)[C@H]1O [Zebularine] + Cc1nc(NC(=O)N2CCC[C@H]2C(N)=O)sc1-c1ccnc(C(C)(C)C(F)(F)F)c1 [Alpelisib] (partner 2 µM)
Summary of the method: as §1

BI-D1870 + Lapatinib = compound: CC(C)CCN1c2nc(Nc3cc(F)c(O)c(F)c3)ncc2N(C)C(=O)C1C [BI-D1870] + CS(=O)(=O)CCNCc1ccc(-c2ccc3ncnc(Nc4ccc(OCc5cccc(F)c5)c(Cl)c4)c3c2)o1 [Lapatinib] (partner 2 µM)
Summary of the method: as §1

Cell Line	relative viability (BI-D1870 + Pictilisib; first compound 0.04 µM)	relative viability (BI-D1870 + Pictilisib; first compound 0.1265 µM)	relative viability (BI-D1870 + Pictilisib; first compound 0.4 µM)	relative viability (BI-D1870 + Pictilisib; first compound 1.265 µM)	relative viability (BI-D1870 + Pictilisib; first compound 4 µM)	relative viability (Zebularine + Lapatinib; first compound 1 µM)	relative viability (Zebularine + Lapatinib; first compound 3.162 µM)	relative viability (Zebularine + Lapatinib; first compound 10 µM)	relative viability (Zebularine + Lapatinib; first compound 31.62 µM)	relative viability (Zebularine + Lapatinib; first compound 100 µM)	relative viability (Zebularine + Alpelisib; first compound 1 µM)	relative viability (Zebularine + Alpelisib; first compound 3.162 µM)	relative viability (Zebularine + Alpelisib; first compound 10 µM)	relative viability (Zebularine + Alpelisib; first compound 31.62 µM)	relative viability (Zebularine + Alpelisib; first compound 100 µM)	relative viability (BI-D1870 + Lapatinib; first compound 0.04 µM)	relative viability (BI-D1870 + Lapatinib; first compound 0.1265 µM)	relative viability (BI-D1870 + Lapatinib; first compound 0.4 µM)	relative viability (BI-D1870 + Lapatinib; first compound 1.265 µM)	relative viability (BI-D1870 + Lapatinib; first compound 4 µM)
NCI-H1975	0.297	0.276	0.288	0.299	0.208	0.982	0.872	0.478	0.392	0.267	0.705	0.555	0.4	0.354	0.233	1.1	0.865	0.858	0.863	0.464
Calu-6	1.03	0.82	0.868	0.704	0.367	1.17	0.99	0.604	0.813	0.347	1	0.929	0.869	0.786	0.302	1.07	0.977	1.09	0.931	0.868
NCI-H1993	0.864	0.704	0.769	0.71	0.622	0.848	0.691		0.718	0.735	0.666	0.76		0.68	0.699	0.855	0.774	0.88	0.809	0.789
RERF-LC-KJ	0.546	0.501	0.451	0.597	0.459	0.901	0.946		0.92	0.863	0.93	0.859	0.611	1.03	0.753	0.886	0.783	0.8	0.821	0.863
NCI-H23	0.625	0.445	0.433	0.421	0.26	1.15	1.12		1.21	0.756	0.577	0.709		0.775	0.563	1.41	0.984	1.04	1.31	0.664
HCC-366	0.157	0.159	0.0753	0.136	0.174	1.22	0.984	0.329	0.749	0.0986	0.409	0.434	0.161	0.509	0.182	1.09	1.01	1	1.21	0.389
EMC-BAC-2	0.626	0.48	0.514	0.637	0.535	0.984	0.964	0.647	0.968	0.981	0.799	0.583	0.456	0.878	0.773	0.823	0.887	0.815	0.951	0.899
NCI-H2405	0.549	0.479	0.442	0.458	0.418	1.06	0.946	0.906	0.963	0.76	0.749	0.749	0.726	0.769	0.568	1.16	1.03	1.05	1.32	1.1
NCI-H358	0.38	0.233	0.338	0.365	0.322	0.48	0.401	0.44	0.467	0.303	0.888	0.786	0.578	0.495	0.266	0.501	0.413	0.551	0.504	0.556
NCI-H1944	0.395	0.294	0.332	0.377	0.345	0.975	0.864	0.613	0.932	0.757	0.858	0.906	0.629	0.805	0.688	0.932	0.669	0.659	0.835	0.768
EPLC-272H	0.364	0.295	0.275	0.312	0.243	0.935			0.992	0.598	0.975			0.828	0.776	0.878	0.879	0.734	1.01	0.852
EBC-1	0.459	0.451	0.354	0.363	0.123	0.244	0.197		0.205	0.212	0.899	0.832	0.711	1.02	0.857	0.195	0.19	0.205	0.188	0.158
NCI-H1915	1.08	0.914	0.907	0.897	0.671	1.12	0.961	0.717	1.13	0.979	1.18	1.05	0.984	1.05	0.93	1.04	0.984	0.969	1.04	0.834
NCI-H596	0.388	0.402	0.385	0.428	0.393	1.19	1.11	0.759	1.18	1	0.476	0.462	0.427	0.566	0.483	1.05	1.03	1.19	1.09	1.05
NCI-H322M	0.579	0.526	0.411	0.526	0.475	0.608	0.589	0.586	0.601	0.576	0.732	0.756	0.772	0.673	0.676	0.605	0.535	0.598	0.529	0.559
NCI-H1299	0.801	0.774	0.653	0.514	0.19	0.965	0.937	0.619	0.968	0.493	1.05	1.16	0.836	1.16	0.529	0.903	0.957	0.95	0.915	0.743
